According to US7326732B2, “EP2 receptor agonists” (Pharmagene Laboratories Limited, priority 2004, dated 2008):

Tests used:
[1] = molecular target: T1, human EP4 receptor (Homo sapiens, UniProt P35408); assay: Binding ability to human EP receptors ([3H]PGE2 displacement), EP4; details: membranes expressing human EP4; [3H]PGE2 1 nM; Cheng-Prusoff; read-out: pKi (M) EP4 (converted)
T1 construct: expressed in transfected cells
Protocol: (§1) Membranes were prepared from cells stably transfected with human EP receptor cDNA. In brief, cells were cultured to confluency, scraped from culture flasks, and centrifuged (800 g, 8 minutes, 4° C.). Cells were twice washed in ice cold homogenisation buffer containing 10 mMTris-HCl, 1 mM EDTA.2Na, 250 mM sucrose, 1 mM PMSF, 0.3 mM indomethacin, pH 7.4, homogenised and re-centrifuged as before. The supernatant was stored on ice and pellets re-homogenised and re-spun. Supernatants were pooled and centrifuged at 40000 g, 10 minutes, 4° C. Resultant membrane pellets were stored at −80° C. until use. For assay, membranes expressing human EP4, EP3, EP2 or EP1 receptors were incubated in Millipore (MHVBN45) plates containing assay buffer, radiolabelled [^3H]PGE2 and 0.1 to 10 000 nM concentrations of compounds. Incubations were performed at suitable temperatures and for suitable times to allow equilibrium to be reached. Non-specific binding was determined in the presence of 10 uM PGE2. Bound and free radiolabel was separated by vacuum manifold filtration using appropriate wash buffers, and bound radiolabel was determined by scintillation counting. Constituents of each of the buffers are included in table 1 below. […] Raven Press, New York, 2nd edition.

[2] = molecular target: T2, human EP3 receptor (Homo sapiens, UniProt P43115); assay: Binding ability to human EP receptors ([3H]PGE2 displacement), EP3; details: membranes expressing human EP3; [3H]PGE2 2.5 nM; Cheng-Prusoff; read-out: pKi (M) EP3 (converted)
T2 construct: expressed in transfected cells
T2 sequence (P43115 1-390): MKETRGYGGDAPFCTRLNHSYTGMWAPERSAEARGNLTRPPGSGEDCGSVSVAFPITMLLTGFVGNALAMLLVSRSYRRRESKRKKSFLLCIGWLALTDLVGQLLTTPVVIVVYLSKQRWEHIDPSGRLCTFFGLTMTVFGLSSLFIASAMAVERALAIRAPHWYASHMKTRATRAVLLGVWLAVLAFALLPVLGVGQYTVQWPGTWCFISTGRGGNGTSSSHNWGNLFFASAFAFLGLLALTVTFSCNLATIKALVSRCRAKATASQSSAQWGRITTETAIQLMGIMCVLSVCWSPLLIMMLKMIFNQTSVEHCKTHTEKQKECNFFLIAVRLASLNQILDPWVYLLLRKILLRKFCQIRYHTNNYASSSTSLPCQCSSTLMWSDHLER
Protocol: as §1

[3] = molecular target: T3, human EP2 receptor (Homo sapiens, UniProt P43116); assay: Binding ability to human EP receptors ([3H]PGE2 displacement), EP2; details: membranes expressing human EP2; [3H]PGE2 3 nM; Cheng-Prusoff; read-out: pKi (M) EP2 (converted)
T3 construct: expressed in transfected cells
T3 sequence (P43116 whole entry): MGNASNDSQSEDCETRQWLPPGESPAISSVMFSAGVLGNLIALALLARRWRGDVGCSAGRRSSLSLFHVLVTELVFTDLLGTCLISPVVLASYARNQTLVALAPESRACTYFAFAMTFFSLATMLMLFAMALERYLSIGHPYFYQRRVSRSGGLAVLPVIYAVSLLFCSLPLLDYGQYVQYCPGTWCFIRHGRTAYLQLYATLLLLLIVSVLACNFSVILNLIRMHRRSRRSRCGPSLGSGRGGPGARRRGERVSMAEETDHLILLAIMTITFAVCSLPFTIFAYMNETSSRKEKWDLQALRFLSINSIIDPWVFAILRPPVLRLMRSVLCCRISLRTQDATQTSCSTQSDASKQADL
Protocol: as §1

[4] = molecular target: T4, human EP2 prostanoid receptors (Homo sapiens, UniProt P43116); assay: Agonist activity at recombinant human EP2 prostanoid receptors (cAMP in HEK-293 clones); type: cell-based
T4 construct: expressed in transfected cells; host or cells: HEK-293
T4 sequence (P43116 whole entry): as above
Protocol: Culture media was Minimal essential media (MEM), supplemented with 10% foetal bovine serum, 100 U/ml penicillin, […] streptomycin, 2.5 μg/ml fungizone, 2mM glutamine. Cells were cultured to confluency (3-4 days) prior to use. Culture media was removed, and confluent cells washed three times in MEM. […] Cells were then stimulated by the addition of 25 μl of PGE2 or agonists prepared in assay buffer. In antagonist studies, cells were pre-incubated with compounds for 30 minutes prior to PGE2-mediated stimulation Plates were incubated for 15 min at 37° C., before termination of the reaction by the addition of 25 μl 1M HCl. The plate was then frozen at -20° C. overnight before determination of cAMP concentration. Stimulated cAMP levels were determined by radioligand displacement binding. In brief, plates were thawed rapidly in a waterbath, and the samples neutralised by the addition of 25 μl 1M NaOH. 30 μl was transferred to Millipore plates pre-coated with 0.5% Polyethylenimine (PEI). Samples were diluted by addition of 90 μl cAMP determination buffer (50 mM Tris, 5 mM EDTA, pH 7.0). […] 15 μl of 2 nM (final concentration) [^3H] cAMP, and 15 μl of 3'5'-cAMP protein kinase (8 μg/well final concentration) prepared in cAMP determination buffer containing 0.1% BSA, were added to each well. Plates were incubated on ice for 2 hours, before bound and free radiolabel were separated by vacuum filtration harvesting using the Millipore vacuum manifold, using ice cold water as the termination buffer. The sealing mat was removed from the Millipore plates, and the filters allowed to dry overnight. 50 μl Microscint 0 (Packard Bioscience) was added to each well, and the plate counted using the Micro-Beta Trilux topcount ^3H program. cAMP accumulation was determined from the standard curve, and values calculated in pmoles cAMP/well. Antagonists affinities (pA2 values) were determined assuming a slope of unity and the […]-Schild equation, where pA2=log [concentration ratio-1]-log[antagonist].

T1 sequence (P35408 whole entry): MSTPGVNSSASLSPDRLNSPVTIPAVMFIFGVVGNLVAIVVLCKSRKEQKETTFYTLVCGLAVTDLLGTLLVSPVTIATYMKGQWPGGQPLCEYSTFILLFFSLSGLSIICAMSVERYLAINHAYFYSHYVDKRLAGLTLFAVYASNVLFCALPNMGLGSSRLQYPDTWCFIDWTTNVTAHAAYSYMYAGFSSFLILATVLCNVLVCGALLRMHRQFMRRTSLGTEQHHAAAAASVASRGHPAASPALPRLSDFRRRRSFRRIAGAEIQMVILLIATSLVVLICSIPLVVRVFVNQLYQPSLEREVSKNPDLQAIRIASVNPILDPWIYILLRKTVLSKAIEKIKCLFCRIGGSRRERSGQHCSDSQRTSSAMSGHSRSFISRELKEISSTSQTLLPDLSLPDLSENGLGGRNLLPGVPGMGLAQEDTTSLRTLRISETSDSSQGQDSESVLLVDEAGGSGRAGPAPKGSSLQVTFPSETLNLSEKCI

| Compound | Ki [1] [M] | Ki [2] [M] | Ki [3] [M] | EC50 ([4]; HEK-293 stably transfected with human EP2, cAMP accumulation, read-out: pEC50 EP2 (converted)) [µM] | activity (EP2 part) ([4]; functional classification at EP2) |
| --- | --- | --- | --- | --- | --- |
| O=C(O)Cc1cccc(NC(=O)c2ccc(-c3ccccc3C(F)(F)F)o2)c1 [Compound 23, (3-{[5-(2-Trifluoromethyl-phenyl)-furan-2-carbonyl]-amino}-phenyl)-acetic acid] | > 1e-05 | > 1e-05 | < 1e-05 |  |  |
| O=C(O)Cc1cccc(NC(=O)c2ccc(-c3ccc(Cl)cc3Cl)o2)c1 [Compound 25, (3-{[5-(2,4-Dichloro-phenyl)-furan-2-carbonyl]-amino}-phenyl)-acetic acid] | > 1e-05 | > 1e-05 | < 1e-05 |  |  |
| Cc1ccccc1-c1ccc(C(=O)Nc2cccc(CC(=O)O)c2)o1 [Compound 28, (3-{[5-(2-Methyl-phenyl)-furan-2-carbonyl]-amino}-phenyl)-acetic acid] | > 1e-05 | > 1e-05 | < 1e-06 |  |  |
| O=C(O)Cc1cccc(NC(=O)c2ccc(-c3cccc(OC(F)(F)F)c3)o2)c1 [Compound 32, (3-{[5-(3-Trifluoromethoxy-phenyl)-furan-2-carbonyl]-amino}-phenyl)-acetic acid] | < 1e-05 | > 1e-05 | < 1e-06 |  |  |
| O=C(O)Cc1cccc(NC(=O)c2ccc(-c3ccc(OC(F)(F)F)cc3)o2)c1 [Compound 33, (3-{[5-(4-Trifluoromethoxy-phenyl)-furan-2-carbonyl]-amino}-phenyl)-acetic acid] | > 1e-05 | > 1e-05 | < 1e-05 |  |  |
| CC(C)c1ccc(-c2ccc(C(=O)Nc3cccc(CC(=O)O)c3)o2)cc1 [Compound 35, (3-{[5-(4-Isopropyl-phenyl)-furan-2-carbonyl]-amino}-phenyl)-acetic acid] | > 1e-05 | > 1e-05 | < 1e-05 |  |  |
| O=C(O)Cc1cccc(NC(=O)c2ccc(-c3ccco3)o2)c1 [Compound 38, {3-[([2,2′]Bifuranyl-5-carbonyl)-amino]-phenyl}-acetic acid] | > 1e-05 | > 1e-05 | < 1e-05 |  |  |
| O=C(O)Cc1cccc(NC(=O)c2ccc(F)c(-c3ccccc3)c2)c1 [Compound 46, {3-[(6-Fluoro-biphenyl-3-carbonyl)-amino]-phenyl}-acetic acid] | > 1e-05 | > 1e-05 | < 1e-05 |  |  |
| Cc1cc(C(=O)Nc2cccc(CC(=O)O)c2)sc1-c1ccccc1 [Compound 50, {3-[(4-Methyl-5-phenyl-thiophene-2-carbonyl)-amino]-phenyl}-acetic acid] | > 1e-05 | > 1e-05 | < 1e-05 |  |  |
| O=C(Nc1cccc(Cc2nnn[nH]2)c1)c1ccc(-c2ccccc2)o1 [Compound 75, 5-Phenyl-furan-2-carboxylic acid [3-(1H-tetrazol-5-ylmethyl)-phenyl]-amide] | > 1e-05 | > 1e-05 | < 1e-07 |  |  |
| O=C(O)c1cc2cc(NC(=O)c3ccc(-c4ccccc4)o3)ccc2o1 [Compound 96, 5-[(5-Phenyl-furan-2-carbonyl)-amino]-benzofuran-2-carboxylic acid] | > 1e-05 | > 1e-05 | < 1e-06 |  |  |
| O=C(O)/C=C/c1cccc(NC(=O)c2ccc(-c3cc(C(F)(F)F)cc(C(F)(F)F)c3)o2)c1 [Compound 102, 3-(3-{[5-(3,5-Bis-trifluoromethyl-phenyl)-furan-2-carbonyl]-amino}phenyl)-acrylic acid] | > 1e-05 | > 1e-05 | < 1e-07 |  |  |
| O=C(O)/C=C/c1cccc(NC(=O)c2ccc(-c3cccc(OCc4ccccc4)c3)o2)c1 [Compound 104, 3-(3-{[5-(3-Benzyloxy-phenyl)-furan-2-carbonyl]-amino}-phenyl)-acrylic acid] | > 1e-05 | > 1e-05 | < 1e-07 |  |  |
| O=C(O)/C=C/c1cccc(NC(=O)c2ccc(-c3ccc(-c4ccccc4)c(F)c3)o2)c1 [Compound 105, 3-(3-{[5-(2-Fluoro-biphenyl-4-yl)-furan-2-carbonyl]-amino}-phenyl)-acrylic acid] | > 1e-05 | > 1e-05 | < 1e-06 |  |  |

Next, values leading:

| Ki [1] [M] | Ki [2] [M] | Ki [3] [M] | EC50 ([4]; HEK-293 stably transfected with human EP2, cAMP accumulation, read-out: pEC50 EP2 (converted)) [µM] | activity (EP2 part) ([4]; functional classification at EP2) | Compound |
| --- | --- | --- | --- | --- | --- |
| > 1e-05 | > 1e-05 | < 1e-05 |  |  | Cc1ccc(-c2ccc(C(=O)Nc3cccc(CC(=O)O)c3)o2)cc1 [Compound 22, (3-{[5-(4-Methyl-phenyl)-furan-2-carbonyl]-amino}-phenyl)-acetic acid] |
| > 1e-05 | > 1e-05 | < 1e-06 |  |  | O=C(O)Cc1cccc(NC(=O)c2ccc(-c3cccc(C(F)(F)F)c3)o2)c1 [Compound 24, (3-{[5-(3-Trifluoromethyl-phenyl)-furan-2-carbonyl]-amino}-phenyl)-acetic acid] |
| > 1e-05 | > 1e-05 | < 1e-05 |  |  | O=C(O)Cc1cccc(NC(=O)c2ccc(-c3ccccc3)s2)c1 [Compound 43, {3-[(5-Phenyl-thiophene-2-carbonyl)-amino]-phenyl}-acetic acid] |
| > 1e-05 | > 1e-05 | < 1e-06 |  |  | Cc1cc(-c2ccccc2)ccc1C(=O)Nc1cccc(CC(=O)O)c1 [Compound 47, {3-[(3-Methyl-biphenyl-4-carbonyl)-amino]-phenyl}-acetic acid] |
| > 1e-05 | > 1e-05 | < 1e-05 |  |  | O=C(O)Cc1cccc(NC(=O)c2ccc(-c3ccccc3)cc2Cl)c1 [Compound 48, {3-[(3-Chloro-biphenyl-4-carbonyl)-amino]-phenyl}-acetic acid] |
| > 1e-05 | > 1e-05 | < 1e-05 |  |  | O=C(O)Cc1cccc(NC(=O)c2cnc(-c3ccccc3)[nH]2)c1 [Compound 53, {3-[(2-Phenyl-1H-imidazole-5-carbonyl)-amino]-phenyl}-acetic acid] |
| > 1e-05 | > 1e-05 | < 1e-05 |  |  | O=C(O)c1cc2cc(NC(=O)c3ccc(-c4ccccc4)o3)ccc2[nH]1 [Compound 59, 5-[(5-Phenyl-furan-2-carbonyl)-amino]-1H-indole-2-carboxylic acid] |
| > 1e-05 | > 1e-05 | < 1e-05 |  |  | O=C(O)c1ccc2cc(NC(=O)c3ccc(-c4ccccc4)o3)ccc2c1 [Compound 63, 6-[(5-Phenyl-furan-2-carbonyl)-amino]-naphthalene-2-carboxylic acid] |
| > 1e-05 | > 1e-05 | < 1e-05 |  |  | NC(=O)Cc1cccc(NC(=O)c2ccc(-c3ccccc3)o2)c1 [Compound 73, 5-Phenyl-furan-2-carboxylic acid (3-carbamoylmethyl-phenyl)-amide] |
| > 1e-05 |  | < 1e-07 | < 0.1 | EP2 Agonist | O=C(Nc1cccc(Cc2nnn[nH]2)c1)c1ccc(-c2cccc(F)c2)o1 [Compound 86, 5-(3-Fluoro-phenyl)-furan-2-carboxylic acid [3-(1H-tetrazol-5-ylmethyl)-phenyl]-amide] |
| < 1e-06 | > 1e-05 | < 1e-07 |  |  | O=C(O)/C=C/c1cccc(NC(=O)c2ccc(-c3cccc(-c4ccccc4)c3)o2)c1 [Compound 103, 3-{3-[(5-Biphenyl-3-yl-furan-2-carbonyl)-amino]-phenyl}-acrylic acid] |
